The values below are quoted from earlier work in US12622947B2, “Pharmaceutical composition for treating levodopa-induced dyskinesia or for suppressing progression thereof” (PEPTRON, INC., priority 2019, dated 2026).

The conditions of data set [1]: in vivo.
For data set [2] the following is noted: compared to GLP-1-Tf (Martin et al., 2012).
The test system of another data set is MPTP mouse model. The note with it: given daily for 7 days after treatment (Liu et al., 2015).

As for Exendin-4, the “crossing the BBB / entry into the brain from blood” value in data set [1] was “enter the brain from blood although its entry speed is limited”. Besides, the rotarod performance result in data set [2] is given as “improve rotarod performance”. In the data set with MPTP mouse model, the neuro-protection entry is reported as “not effective”.
